In assay [1] the test system is 2-hydroxyisoflavanone dehydratase in cell-free extract of soybean seedling. Briefly: 2-hydroxyisoflavanone dehydratase assay, soybean crude extract. It counts as biochemical, Glycine max. The settings on record: for Specific activity, Soybean Crude extract: rate of isoflavone production, 30° C., 10 minutes, mean ± SD of three experiments. On the procedure: (§1) All procedures were carried out at 4° C. Licorice cells (10 g) after elicitor treatment (for 24 hours) or 1-week old soybean raised from seeds (10 g) were homogenized in a mortar with 10 ml of a 100-mM potassium phosphate buffer (pH 7.5) containing 10% sucrose and 14 mM of 2-mercaptoethanol and with sea sand (2.5 g). The resulting homogenate was filtered through gauze and then centrifuged at 10,000×g for 10 minutes. Supernatant was mixed with 2.5 g of Dowex 1-X2 (equilibrated with a 100-mM potassium phosphate buffer), followed by standing for 20 minutes. The solution obtained from the filtration was fractionated with ammonium sulfate and a 30-80% saturated fraction was then demineralized through a Sephadex G-25 column and dissolved in a 100-mM potassium phosphate buffer (pH 7.5) containing 10% sucrose and 14-mM 2-mercaptoethanol, followed by being used in the assay (approximately 600 μg/ml of protein).
(§2) An enzyme preparation was added to 2,7,4′-trihydroxyisoflavanone, 2,7-dihydroxy-4′-methoxyisoflavanone, or 2,5,7,4′-tetrahydroxyisoflavanone (5 nmol each) in 2-methoxyethanol so as to be in a total volume of 100 μl, and then the whole was incubated at 30° C. for 10 minutes.
(§3) A concentrated ethyl acetate extract was incubated with recombinant licorice HIDM (1 μg) at 30° C. for 10 minutes. An ethyl acetate extract from the mixture was analyzed by high-performance liquid chromatography (HPLC). The HPLC for both daidzein and formononetin analysis was carried out using a Capcell pak C18 MG column (4.6×150 mm; Shiseido Co., Ltd.) at 40° C. (flow volume=0.8 ml/min) (Non-Patent Document 12) with a linear gradient elution for 40 minutes from 35% to 55% methanol in 3% aqueous acetic acid. 5-Hydroxyisoflavones were analyzed using a Capcell pak C18MG column (4.6×150 mm; Shiseido Co., Ltd.) with a 50% methanol aqueous solution (for genistein) or a 55% methanol aqueous solution (for biochanin A) at 40° C. (flow rate=0.8 ml/min).
(§4) The purified recombinant protein (approximately 10 ng of protein) and cell-free extracts of licorice and soybean (approximately 10 μg of protein) were used to determine their specific activity. The concentration of isoflavone was calculated from the HPL peak area of the standard sample of each of daidzein, formononetin, and genistein.

Assay [2] addresses T1, recombinant soybean HIDH (2-hydroxyisoflavanone dehydratase) (Glycine max, UniProt Q5NUF3).
T1 construct: the NdeI-BamHI fragment of soybean cDNA (HIDH) was also subcloned into the corresponding sites of the pET28a; made in house; host or cells: E. coli BL21 (DE3), vector pET28a, purified with HisTrap Kit
T1 sequence (Q5NUF3 1-319): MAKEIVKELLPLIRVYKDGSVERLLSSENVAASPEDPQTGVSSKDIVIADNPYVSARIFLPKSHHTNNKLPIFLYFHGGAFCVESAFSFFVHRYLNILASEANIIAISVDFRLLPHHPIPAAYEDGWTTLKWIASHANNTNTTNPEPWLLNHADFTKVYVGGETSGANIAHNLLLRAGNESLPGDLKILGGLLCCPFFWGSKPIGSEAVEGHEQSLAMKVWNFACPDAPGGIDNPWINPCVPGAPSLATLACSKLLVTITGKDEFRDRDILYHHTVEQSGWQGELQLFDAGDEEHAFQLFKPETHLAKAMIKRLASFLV
Briefly: 2-hydroxyisoflavanone dehydratase assay, recombinant soybean HIDH. Type of assay: biochemical. The note with it: for Specific activity, Soybean Recombinant protein: purified recombinant protein, rate of isoflavone production, mean ± SD of three experiments. The procedure:
as §2, §3, §4
(§5) The NdeI-BamHI fragment of the PCR product from licorice HIDM was cloned into the corresponding sites of pET28a (Novagen Ltd.). In addition, the NdeI-BamHI fragment of soybean cDNA (HIDH) was also subcloned into the corresponding sites of the pET28a. The expression and purification of recombinant 2-hydroxyisoflavanone dehydratases were carried out by the following procedures (Non-Patent Document 12). The E. coli BL21 (DE3) cells transformed with the vector containing HIDM or HIDH were incubated up to OD600=0.4 in a LB/ampicillin medium supplemented with 20 ml of 50 μg/ml kanamycin or ampicillin at 30° C. IPTG was added to the culture so as to be a final concentration of 1.0 mM and the whole was incubated at 30° C. for six hours. The licorice HIDM and soybean HIDH were purified from the crude extracts of HIDM and HIDH-expression E. coli using HisTrap Kit (Amersham Biosciences Corporation), respectively.

In assay [3] the target is T2, recombinant licorice HIDM (2-hydroxyisoflavanone dehydratase) (Glycyrrhiza echinata, UniProt Q5NUF4).
T2 construct: The NdeI-BamHI fragment of the PCR product from licorice HIDM was cloned into the corresponding sites of pET28a; made in house; host or cells: E. coli BL21 (DE3), vector pET28a, purified with HisTrap Kit
T2 sequence (Q5NUF4 1-328): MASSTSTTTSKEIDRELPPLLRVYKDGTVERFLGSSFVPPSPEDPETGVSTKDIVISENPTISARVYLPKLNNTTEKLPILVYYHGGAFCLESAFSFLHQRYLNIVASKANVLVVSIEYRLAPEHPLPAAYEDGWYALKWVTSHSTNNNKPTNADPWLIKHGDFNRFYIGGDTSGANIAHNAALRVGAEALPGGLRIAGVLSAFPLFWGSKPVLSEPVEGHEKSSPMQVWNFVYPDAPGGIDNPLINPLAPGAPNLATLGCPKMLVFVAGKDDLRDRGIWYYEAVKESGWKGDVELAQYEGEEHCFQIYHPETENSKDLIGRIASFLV
Put plainly: 2-hydroxyisoflavanone dehydratase assay, recombinant licorice HIDM. It counts as biochemical. The note with it: for Specific activity, Licorice Recombinant protein: purified recombinant protein, rate of isoflavone production, mean ± SD of three experiments. On the procedure: as §2
The assay of 2,5,7-trihydroxy-4′-methoxyisoflavanone dehyderatase (biochanin A synthetase) was carried out as follows. 2,5,7,4′-tetrahydroxyisoflavanone (10 nmol) dissolved in 2-methoxyethanol was incubated together with licorice HI4′OMT (1 μg) and 1 μmol of S-adenosyl-L-methionine (SAM) at 30° C. for 15 minutes.
as §3, §4, §5

Assay [4] deals with 2-hydroxyisoflavanone dehydratase of P. lobata. The note with it: Hakamatsuka et al., 1998; cited from earlier work.
The subject of assay [5] is Carboxylesterase from pig liver. Put plainly: 2-hydroxyisoflavanone dehydratase assay, carboxylesterase from pig liver. It counts as biochemical. The procedure:
as §2
(§6) A concentrated ethyl acetate extract was incubated with recombinant licorice HIDM (1 μg) at 30° C. for 10 minutes. An ethyl acetate extract from the mixture was analyzed by high-performance liquid chromatography (HPLC). The HPLC for both daidzein and formononetin analysis was carried out using a Capcell pak C18 MG column (4.6×150 mm; Shiseido Co., Ltd.) at 40° C. […] 5-Hydroxyisoflavones were analyzed using a Capcell pak C18MG column (4.6×150 mm; Shiseido Co., Ltd.) with a 50% methanol aqueous solution (for genistein) or a 55% methanol aqueous solution (for biochanin A) at 40° C. […]
The specific carboxylesterase activities of recombinant licorice HIDM and soybean HIDH proteins were calculated from the generation rate of p-nitrophenol measured at 30° C. by an absorbance at 400 nm in 1.5 ml of a 50-mM Tris-HCl buffer containing 150 mM of NaCl and 750 nmol of p-nitrophenyl butyrate (Heymann 1981). […] Thermally-denatured (100° C., 10 minutes) licorice HIDM, soybean HIDH, and pig liver carboxylesterase protein were analyzed as negative controls, respectively.

Assay [6] concerns the target T3, 2-hydroxyisoflavanone dehydratase in cell-free extract of licorice cells (strain AK-1) (Glycyrrhiza echinata, UniProt Q5NUF4).
T3 construct: Licorice cells (10 g) after elicitor treatment (for 24 hours) or 1-week old soybean raised from seeds (10 g) were homogenized; endogenous in cells; host or cells: elicitor-treated licorice cultured cells (strain AK-1); 30-80% ammonium sulfate fraction of the cell-free extract
T3 sequence (Q5NUF4 1-328): T2 sequence (Q5NUF4 1-328)
Briefly: 2-hydroxyisoflavanone dehydratase assay, licorice crude extract. Type of assay: biochemical. The note with it: for Specific activity, Licorice Crude extract: rate of isoflavone production, 30° C., 10 minutes, mean ± SD of three experiments. On the procedure: as §1, §2, §6, §4

Assay [7] has as its target T4, recombinant soybean HIDH (Glycine max, UniProt Q5NUF3).
T4 construct: the NdeI-BamHI fragment of soybean cDNA (HIDH) was also subcloned into the corresponding sites of the pET28a; made in house; host or cells: E. coli BL21 (DE3), vector pET28a, purified with HisTrap Kit
T4 sequence (Q5NUF3 1-319): T1 sequence (Q5NUF3 1-319)
Put plainly: Carboxylesterase activity of recombinant soybean HIDH. It counts as biochemical. On the procedure:
(§7) The specific carboxylesterase activities of recombinant licorice HIDM and soybean HIDH proteins were calculated from the generation rate of p-nitrophenol measured at 30° C. by an absorbance at 400 nm in 1.5 ml of a 50-mM Tris-HCl buffer containing 150 mM of NaCl and 750 nmol of p-nitrophenyl butyrate (Heymann 1981). Commercially-available pig liver carboxylesterase (Sigma Corporation) was used as a positive control. Thermally-denatured (100° C., 10 minutes) licorice HIDM, soybean HIDH, and pig liver carboxylesterase protein were analyzed as negative controls, respectively.

Assay [8] concerns Carboxylesterase from pig liver. Put plainly: Carboxylesterase activity of pig liver carboxylesterase (positive control). Type of assay: biochemical. The settings on record: rate of p-nitrophenol production, 30° C., absorbance at 400 nm. The procedure: as §7
Assay [9] concerns the target T5, recombinant licorice HIDM (Glycyrrhiza echinata, UniProt Q5NUF4).
T5 construct: The NdeI-BamHI fragment of the PCR product from licorice HIDM was cloned into the corresponding sites of pET28a; made in house; host or cells: E. coli BL21 (DE3), vector pET28a, purified with HisTrap Kit
T5 sequence (Q5NUF4 1-328): T2 sequence (Q5NUF4 1-328)
Put plainly: Carboxylesterase activity of recombinant licorice HIDM. It counts as biochemical. On the procedure:
as §7

Setting [10] is: rate of p-nitrophenol production, 30° C., absorbance at 400 nm.

“And” between values parts separate entries of the source, which are not always exact repeats. Identical values can stand only once.

Consider `O=C1c2c(O)cc(O)cc2OC(O)C1c1ccc(O)cc1` (stereo not drawn) [2,5,7,4′-tetrahydroxyisoflavanone], for which the “Specific activity, Soybean Crude extract” value in assay [1] was determined as 19.6 ± 3 pkatal/mg. The “Production of genistein, level with respect to the production of daidzein” value in [1] (soybean extract) is listed as “approximately 1/10”. For the same compound, in [2], the “Specific activity, Soybean Recombinant protein” value amounted to 3.55 ± 0.6 nkatal/mg. In addition, the “Product formation by soybean HIDH (HPLC)” value in [2] (recombinant soybean HIDH) was “catalyzed the production of genisein”.

`COc1ccc(C2C(=O)c3c(O)cc(O)cc3OC2O)cc1` (stereo not drawn) [2,5,7-trihydroxy-4′-methoxyisoflavanone]: the “Product detected by HPLC after incubation with licorice HIDM” value in [3] (substrate made with HI4′OMT and SAM, HIDM 1 μg, 30° C., 10 minutes) is reported as “biochanin A was detected”.

With `O=C1c2ccc(O)cc2OC(O)C1c1ccc(O)cc1` (stereo not drawn) [2,7,4′-trihydroxyisoflavanone], the “Specific activity of dehydratase of P. lobata” value in [4] is given as 56.8 mkatal/kg protein. Further, in [5], the “Dehydration by carboxylesterase from pig liver” value was “did not dehydrate”. For the same compound, the “Specific activity, Carboxylesterase from pig liver (dehydration)” value in assay [5] (rate of isoflavone production) is 0 nkatal/mg. In addition, the “Specific activity, Soybean Crude extract” value in [1] worked out at 197.3 ± 15 pkatal/mg. Also, in [6] (licorice extract, versus 2,7-dihydroxy-4′-methoxyisoflavanone), the “Activity (daidzein production), times as small as the production of formononetin” value is on record as “approximately 160 times”. In [6], the “Specific activity, Licorice Crude extract” value is reported as 0.8 ± 0.03 pkatal/mg. For the same compound, in assay [3], the “Specific activity, Licorice Recombinant protein” value stood at 0.70 ± 0.08 nkatal/mg. Also, the “Specific activity, Soybean Recombinant protein” value in assay [2] was 43.6 nkatal/mg and 43.6 ± 4 nkatal/mg.

Consider `COc1ccc(C2C(=O)c3ccc(O)cc3OC2O)cc1` (stereo not drawn) [2,7-dihydroxy-4′-methoxyisoflavanone], for which the “Specific activity, Soybean Crude extract” value in assay [1] was found to be 97.4 ± 10 pkatal/mg. In addition, the “Specific activity, Licorice Crude extract” value in assay [6] turned out to be 123.0 ± 8 pkatal/mg. The “Specific activity, Licorice Recombinant protein” value in assay [3] is recorded as 52.1 ± 1.5 nkatal/mg. The “Specific activity of licorice HIDM, times as high as to 2,7,4′-trihydroxyisoflavanone” value in assay [3] (recombinant licorice HIDM) stood at 74 times. In assay [2], the “Specific activity, Soybean Recombinant protein” value is 0.90 ± 0.1 nkatal/mg.

Consider `CCCC(=O)Oc1ccc([N+](=O)[O-])cc1` [p-nitrophenyl butyrate], for which, in assay [7], the “Carboxylesterase activity of recombinant soybean dehydratase” value is listed as “weak activity” and the “Carboxylesterase activity of soybean HIDH as fraction of the pig liver enzyme” value was “approximately 1/50”. Besides, the “Specific carboxylesterase activity, Soybean Recombinant protein” value in assay [7] (setting [10]) is given as 7.20 ± 0.4 (f) nkatal/mg. In addition, in [8], the “Specific carboxylesterase activity, Carboxylesterase from pig liver” value is listed as 425 ± 7 (f) nkatal/mg. In addition, the “Carboxylesterase activity of recombinant licorice dehydratase” value in assay [9] is listed as “weak activity”. For the same compound, the “Specific carboxylesterase activity, Licorice Recombinant protein” value in [9] (setting [10]) is listed as 0.32 ± 0.07 (f) nkatal/mg.

The values above are taken from patent US7462478B2, “Polynucleotide encoding 2-hydroxyisoflavanone dehydratase and application of the same” (Nihon University, priority 2003, dated 2008).
